The text below walks through data of PubChem BioAssay (NCI).

What all share (assay): NCI tumour cell line growth inhibition, 48 h
In experiment [1] the test system is CCRF-CEM leukemia.
For experiment [2], the system named is MCF7 breast.
Experiment [3] deals with SF-539 CNS.
Experiment [4] relates to HCT-15 colon.
The test system of experiment [5] is SK-MEL-2 melanoma.
Experiment [6] relates to T-47D breast.
Experiment [7] deals with HT29 colon.
Experiment [8] relates to MDA-MB-435.
Experiment [9] has as its system SNB-75 CNS.
Experiment [10] deals with SK-MEL-28 melanoma.

Several values for one entry are separate records, joined by “and”; a condition that tells them apart may be missing. Equal values may be shown once.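 Tested at 5 concentrations; 48 h exposure; 96-well plates; endpoints linearly interpolated, else capped at highest concentration. Abbreviation: GI50, concentration required for 50% inhibition of growth. At the TGI there is no net growth.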 Bounds are passed on as bounds.

For `O=C(CS(=O)c1nc2ccccc2nc1-c1ccccc1)Nc1ccc(Cl)cc1` (stereo not given), the GI50 in experiment [1] was 23.4 µM; in experiment [2], 38.7 µM; in [3], 14 µM; in experiment [4] it was 21.2 µM; in [5] it was 27.4 µM; in experiment [6], 32.7 µM. Moreover, the GI50 was 48.5 µM in [7], 18.1 µM in experiment [8], more than 100 µM in experiment [9] and 58.9 µM in experiment [10]. The TGI in [1] was 56.8 µM; in experiment [2] it was more than 100 µM; in experiment [3] it was more than 100 µM; in experiment [4], 59.4 µM; in experiment [5], 65.5 µM; in experiment [6], more than 100 µM. The TGI in experiment [7] is more than 100 µM; in [8] it was 41.4 µM; in experiment [9], more than 100 µM; in experiment [10] it was more than 100 µM.
`CCc1nc(N)nc(N)c1-c1ccc(N(C)Cc2ccccc2)c([N+](=O)[O-])c1`: the TGI in [1] came out at 12.7 µM; in [2], 15.9 µM; in experiment [3], 9.97 µM; in experiment [4], 9.86 µM; in [5], 20 µM; in experiment [6] it was 21.4 µM. Also, the TGI in experiment [7] worked out at 14.6 µM; in experiment [8], 17.9 µM; in [9], 19.5 µM; in experiment [10], 17 µM.
Take `Cc1c(C(=O)/C=C/c2ccc(Cl)cc2)nnn1-c1ccnc2c(C(F)(F)F)cccc12`: the GI50 was 15.3 µM in experiment [1]; 70.7 µM in [2]; 51.9 µM in experiment [3]; 54.6 µM in experiment [4]; more than 100 µM in [5]; more than 100 µM in experiment [6]. Also, the GI50 in experiment [7] was 8.24 µM; in experiment [8] it was more than 100 µM; in experiment [9], 15.9 µM; in experiment [10] it was more than 100 µM. In addition, the TGI in experiment [1], in experiment [2], in [3], in experiment [4], in [5] and in experiment [6] was more than 100 µM each time. For the same compound, the TGI in experiment [7] was more than 100 µM; in [8], more than 100 µM; in experiment [9], 36.5 µM; in [10] it was more than 100 µM.
In the case of `CC(C)c1ccc(C(c2c(O)c3ccccc3oc2=O)c2c(O)c3ccccc3oc2=O)cc1`, the TGI in experiment [1] is 36.2 µM; in [2], 86 µM; in [3], 39.4 µM; in [4] it was 46.4 µM; in [5], 30.8 µM; in [6], more than 100 µM. Also, the TGI in [7] is 40.2 µM; in [8], 39.3 µM; in experiment [9], 75.8 µM; in experiment [10], 40 µM.
As for `CN(CO)c1nc(N(C)CO)nc(N(C)CO)n1`, the GI50 in [1] was 25.5 µM; in [2], 32 µM; in experiment [3], 23.6 µM and 17.2 µM; in experiment [4] it was 25.8 µM; in [5] it was 15.5 µM and 5.47 µM; in experiment [6], 25 µM. Moreover, the GI50 in experiment [7] is 26.3 µM; in experiment [9] it was 16.4 µM; in experiment [10], 18.3 µM. Besides, the TGI in experiment [1] is 73.6 µM; in [2] it was 99.1 µM and 56.4 µM; in [3], 52.4 µM and 36.9 µM; in experiment [4], 65.5 µM and 37.1 µM; in [5] it was 32.1 µM and 11.2 µM; in experiment [6] it was 67.7 µM and 211 µM. The TGI is 71.2 µM and 144 µM in experiment [7]; 40.3 µM in [8]; 53.3 µM and 32 µM in [9]; 36.7 µM and 28.4 µM in [10].
Turning to `CN1CCN(C(=O)[C@@]2(C)CC[C@]3(C)CC[C@]4(C)C(=CC[C@@H]5[C@@]6(C)CC[C@H](OC(=O)c7cccnc7)C(C)(C)[C@@H]6CC[C@]54C)[C@@H]3C2)CC1`, the GI50 was 2.35 µM in experiment [1]; 1.49 µM in experiment [2]; 1.6 µM in experiment [3]; 1.4 µM in [4]; 13.2 µM in experiment [5]; 3.12 µM in experiment [6]. In addition, the GI50 in experiment [7] was 1.06 µM; in experiment [8], 1.7 µM; in experiment [9] it was 1.32 µM; in experiment [10], 1.79 µM. The TGI in [1] came out at 6.45 µM; in experiment [2], 3.17 µM; in [3], 3.06 µM; in experiment [4] it was 2.8 µM; in experiment [5] it was 28.6 µM; in [6], 17 µM. The TGI is 2.69 µM in [7], 3.19 µM in [8], 2.63 µM in experiment [9] and 3.34 µM in [10].
Take `CCN(CC)CCOc1ccc(NC(=O)C(C(C)C)N2C(=O)/C(=C/c3ccc(Br)cc3)SC2=S)cc1` (stereo not given): the GI50 in experiment [1] was 2.82 µM; in experiment [2], 1.99 µM; in experiment [3] it was 1.87 µM; in [4], 2.01 µM; in experiment [5] it was 14.9 µM; in [6], 3.63 µM. Further, the GI50 is 2.88 µM in experiment [7], 2.1 µM in experiment [8], 7.82 µM in experiment [9] and 2.07 µM in experiment [10]. Besides, the TGI in experiment [1] was 9.52 µM; in experiment [2] it was 4.34 µM; in experiment [3], 3.55 µM; in experiment [4] it was 4.31 µM; in experiment [5], 30.9 µM; in [6], 19 µM. In addition, the TGI in experiment [7] is 8.51 µM; in experiment [8], 4.41 µM; in experiment [9] it was 21.1 µM; in [10], 4.35 µM.
Regarding `CCCn1cc(/C=N\N=C2\C(=O)Nc3ccc(C)cc32)c2ccccc21`, the GI50 in experiment [1] is 1.94 µM; in experiment [2], 1.54 µM; in [3] it was 2.69 µM; in experiment [4], 2.63 µM; in experiment [5] it was 2.42 µM; in [6], 0.416 µM. The GI50 in experiment [7] is 3.4 µM; in experiment [8], 1.5 µM; in [9], 2.31 µM; in experiment [10], 4.7 µM. For the same compound, the TGI was more than 100 µM in experiment [1]; 15.5 µM in experiment [2]; 17.1 µM in [3]; 42.2 µM in experiment [4]; 8.03 µM in experiment [5]; 18.4 µM in experiment [6]. Besides, the TGI was more than 100 µM in [7], 2.96 µM in [8], 46 µM in experiment [9] and 36.9 µM in experiment [10].
In the case of `COc1ccc(C2CC(c3ccc4ccccc4c3)=NN2c2nc(O)c(C3=c4cc(Cl)ccc4=NC3=O)s2)cc1` (stereo not given), the GI50 in [1] was 0.0362 µM and < 0.005 µM; in [2], 0.0292 µM and < 0.005 µM; in experiment [3], 0.0195 µM and < 0.005 µM; in experiment [4], 0.0342 µM; in [5], 0.0263 µM and < 0.005 µM; in [6] it was 0.0223 µM and < 0.005 µM. For the same compound, the GI50 in [7] is 0.0307 µM and < 0.005 µM; in experiment [8], 0.0215 µM and < 0.005 µM; in experiment [9] it was 0.0171 µM; in experiment [10] it was 0.0258 µM and < 0.005 µM. Besides, the TGI is 0.533 µM in experiment [1]; 0.0402 µM and < 0.005 µM in experiment [3]; 0.229 µM in experiment [4]; 0.771 µM and 0.556 µM in experiment [7]; 0.0483 µM and < 0.005 µM in experiment [8]; 0.0408 µM in [9].
As for `C=C1C(=O)O[C@H]2[C@H]1CC/C(CNC(=O)C(C)c1ccc(CC(C)C)cc1)=C\CC[C@@]1(C)O[C@@H]21` (stereo not given in full), the GI50 in experiment [1] was 0.551 µM; in experiment [2], 1.62 µM; in experiment [3] it was 1.58 µM; in experiment [4], 1.47 µM; in experiment [5], 1.6 µM; in [6], 1.78 µM. Also, the GI50 was 1.79 µM in experiment [7], 1.72 µM in experiment [8], 1.34 µM in experiment [9] and 1.67 µM in experiment [10]. Further, the TGI in [1] was found to be 7.49 µM; in [2] it was 3.68 µM; in [3], 3.07 µM; in experiment [4] it was 3.25 µM; in experiment [5] it was 3.18 µM; in [6], 4.79 µM. Moreover, the TGI in experiment [7] worked out at 3.66 µM; in experiment [8], 3.76 µM; in [9], 2.63 µM; in experiment [10] it was 3.32 µM.
